Assay results as given in publication PMC3502511, “Inhibition of the Prokaryotic Pentameric Ligand-Gated Ion Channel ELIC by Divalent Cations” (PLoS Biology, 2012).
Where “and” joins values, the source holds several entries; their conditions need not be identical. Equal values may be shown once. Read-outs that look alike come from different tables or passages of the source.

Tests used:
ELIC = molecular target: T1, ELIC (Dickeya chrysanthemi, UniProt P0C7B7, INS163G); settings: high Ca^2+ concentration; cited from earlier work
T1 construct: expressed in transfected cells; host or cells: HEK 293 cells (ATCC CRL-1573), pcDNA3

ELIC S84A = molecular target: T2, ELIC S84A (Dickeya chrysanthemi, UniProt P0C7B7, INS163G/S84A); experiment: Two-electrode voltage clamp, ELIC S84A in oocytes; assay type: cell-based, Erwinia chrysanthemi; settings: S84A
T2 construct: expressed in transfected cells; host or cells: X. laevis oocytes
Procedure: (§1) Constructs containing the gene of either the WT or mutant channels preceded by the signal sequence of the chicken α7nAchR were cloned into the pTLN vector for expression in X. laevis oocytes. After linearization of the plasmid DNA by MluI, capped complementary RNA was transcribed with the mMessage mMachine kit (Ambion) and purified with the RNeasy kit (Qiagen). For expression, 1–50 ng of RNA was injected into defolliculated oocytes. Two-electrode voltage clamp measurements were performed 1 d after injection at 20°C (OC-725B, Warner Instrument Corp.). Currents were recorded in bath solutions containing 10 mM HEPES (pH 7), 130 mM NaCl, and the indicated concentrations of cysteamine and divalent cations. In case of solutions containing Zn^2+, cysteamine was replaced by propylamine. The membrane potential in all dose–response measurements was set to −40 mV. As ELIC is permeable to divalent cations, we tested if endogenous calcium-activated chloride channels affected our measurements. To chelate intracellular calcium ions, the oocytes were incubated for 15 to 30 min in bath solutions lacking divalent ions but containing 10 µM BAPTA-AM.

ELIC D113A = molecular target: T3, ELIC D113A (Dickeya chrysanthemi, UniProt P0C7B7, D113A/INS163G); experiment: Two-electrode voltage clamp, ELIC D113A in oocytes; assay type: cell-based, Erwinia chrysanthemi
T3 construct: expressed in transfected cells; host or cells: X. laevis oocytes
Procedure: as §1

ELIC D113N = molecular target: T4, ELIC D113N (Dickeya chrysanthemi, UniProt P0C7B7, D113N/INS163G); experiment: Two-electrode voltage clamp, ELIC D113N in oocytes; assay type: cell-based, Erwinia chrysanthemi
T4 construct: expressed in transfected cells; host or cells: X. laevis oocytes
Procedure: as §1

ELIC D86A = molecular target: T5, ELIC D86A (Dickeya chrysanthemi, UniProt P0C7B7, D86A/INS163G); experiment: Two-electrode voltage clamp, ELIC D86A in oocytes; assay type: cell-based, Erwinia chrysanthemi
T5 construct: expressed in transfected cells; host or cells: X. laevis oocytes
Procedure: as §1

ELIC E150Q = molecular target: T6, ELIC E150Q (Dickeya chrysanthemi, UniProt P0C7B7, E150Q/INS163G); experiment: Two-electrode voltage clamp, ELIC E150Q in oocytes; assay type: cell-based, Erwinia chrysanthemi
T6 construct: expressed in transfected cells; host or cells: X. laevis oocytes
Procedure: as §1

ELIC D113A/D158A = molecular target: T7, ELIC D113A/D158A (Dickeya chrysanthemi, UniProt P0C7B7, D113A/D158A/INS163G); experiment: cell-based; assay type: cell-based, Erwinia chrysanthemi; settings: D113A/D158A; agonist cysteamine
T7 construct: expressed in transfected cells; host or cells: X. laevis oocytes
Procedure: as §1

ELIC WT = molecular target: T8, ELIC WT (Dickeya chrysanthemi, UniProt P0C7B7, INS163G); experiment: cell-based; assay type: cell-based, Erwinia chrysanthemi; settings: for Ki: Schild analysis, read-out: Ki app; for Slope: Schild plot slope
T8 construct: expressed in transfected cells; host or cells: X. laevis oocytes (cRNA injection, pTLN vector)
Procedure: as §1

ELIC D158N = molecular target: T9, ELIC D158N (Dickeya chrysanthemi, UniProt P0C7B7, D158N/INS163G); experiment: Two-electrode voltage clamp, ELIC D158N in oocytes; assay type: cell-based, Erwinia chrysanthemi
T9 construct: expressed in transfected cells; host or cells: X. laevis oocytes
Procedure: as §1

ELIC N251A = molecular target: T10, ELIC N251A (Dickeya chrysanthemi, UniProt P0C7B7, N250A); experiment: Two-electrode voltage clamp, ELIC N251A in oocytes; assay type: cell-based, Erwinia chrysanthemi
T10 construct: expressed in transfected cells; host or cells: X. laevis oocytes
Procedure: as §1

ELIC E150A = molecular target: T11, ELIC E150A (Dickeya chrysanthemi, UniProt P0C7B7, E150A/INS163G); experiment: Two-electrode voltage clamp, ELIC E150A in oocytes; assay type: cell-based, Erwinia chrysanthemi
T11 construct: expressed in transfected cells; host or cells: X. laevis oocytes
Procedure: as §1

ELIC R91A = molecular target: T12, ELIC R91A (Dickeya chrysanthemi, UniProt P0C7B7, INS163G/R91A); experiment: Two-electrode voltage clamp, ELIC R91A in oocytes; assay type: cell-based, Erwinia chrysanthemi; settings: R91A
T12 construct: expressed in transfected cells; host or cells: X. laevis oocytes
Procedure: as §1

ELIC D158A = molecular target: T13, ELIC D158A (Dickeya chrysanthemi, UniProt P0C7B7, D158A/INS163G); experiment: Two-electrode voltage clamp, ELIC D158A in oocytes; assay type: cell-based, Erwinia chrysanthemi
T13 construct: expressed in transfected cells; host or cells: X. laevis oocytes
Procedure: as §1

[1] = Schild analysis, read-out: Ki app

**Q.** With `[Ca+2]` [Ca^2+, calcium] as the compound, how does the “maximum decrease of single channel currents” value (ELIC) read?
**A.** about 50%

**Q.** What about the Ki (ELIC S84A; [1]) of the same compound?
**A.** 150 µM

**Q.** And the Slope (ELIC S84A; Schild plot slope)?
**A.** 0.6±0.2

**Q.** And the pA (ELIC S84A; agonist cysteamine)?
**A.** −0.83±0.14

**Q.** And the Ki (ELIC D113A; [1])?
**A.** 4900 µM

**Q.** And the Slope (ELIC D113A; Schild plot slope)?
**A.** 1.0±0.3

**Q.** And the pA (ELIC D113A; agonist cysteamine)?
**A.** 0.69±0.04

**Q.** And the Ki (ELIC D113N; [1])?
**A.** 950 µM

**Q.** And the Slope (ELIC D113N; Schild plot slope)?
**A.** 1.0±0.01

**Q.** What about the pA (ELIC D113N; agonist cysteamine) of the same compound?
**A.** −0.02±0.08

**Q.** And the Ki (ELIC D86A; [1])?
**A.** 250 µM

**Q.** And the Slope (ELIC D86A; Schild plot slope)?
**A.** 0.8±0.1

**Q.** And the pA (ELIC D86A; agonist cysteamine)?
**A.** −0.60±0.11

**Q.** What about the Ki (ELIC E150Q; [1]) of the same compound?
**A.** 1200 µM

**Q.** What about the Slope (ELIC E150Q; Schild plot slope) of the same compound?
**A.** 0.9±0.3

**Q.** And the pA (ELIC E150Q; agonist cysteamine)?
**A.** 0.09±0.20

**Q.** And the “effects on the agonist dose-response curves in the double mutant” value (ELIC D113A/D158A)?
**A.** virtually abolishes

**Q.** And the “reduction of maximum agonist response” value (ELIC WT; 5 mM Ca^2+, saturating cysteamine, −40 mV)?
**A.** 55%

**Q.** And the pA (ELIC WT; WT/1 mM ACh present, agonist cysteamine)?
**A.** −0.65±0.01

**Q.** What about the Ki (ELIC WT; WT/1 mM ACh) of the same compound?
**A.** 220 µM

**Q.** What about the Slope (ELIC WT; WT/1 mM ACh) of the same compound?
**A.** 0.9±0.02

**Q.** And the pA (ELIC WT; WT/BAPTA (BAPTA-AM-treated oocytes), agonist cysteamine)?
**A.** −0.69±0.11

**Q.** What about the Ki (ELIC WT; WT/BAPTA) of the same compound?
**A.** 200 µM

**Q.** What about the Slope (ELIC WT; WT/BAPTA) of the same compound?
**A.** 1.0±0.3

**Q.** What about the Ki (ELIC WT; WT, agonist cysteamine) of the same compound?
**A.** 260 µM

**Q.** And the Slope (ELIC WT; WT, agonist cysteamine)?
**A.** 0.8 and 0.8±0.05

**Q.** What about the pA (ELIC WT; WT, Schild plot x-intercept (log of mM), agonist cysteamine, −40 mV) of the same compound?
**A.** −0.57±0.03

**Q.** And the IC50 (ELIC WT; WT, maximum cysteamine response, read-out: IC50 of decline of maximum current response (Langmuir equation))?
**A.** 6000 µM

**Q.** What about the “decrease in the agonist maximum response” value (ELIC WT; at 6 mM calcium, channel block subtracted) of the same compound?
**A.** about 50%

**Q.** What about the Ki (ELIC D158N; [1]) of the same compound?
**A.** 3200 µM

**Q.** And the Slope (ELIC D158N; Schild plot slope)?
**A.** 0.5±0.2

**Q.** And the pA (ELIC D158N; agonist cysteamine)?
**A.** 0.50±0.17

**Q.** And the Ki (ELIC N251A; [1])?
**A.** 530 µM

**Q.** And the Slope (ELIC N251A; Schild plot slope)?
**A.** 0.9±0.2

**Q.** And the pA (ELIC N251A; agonist cysteamine)?
**A.** −0.27±0.19

**Q.** What about the Ki (ELIC E150A; [1]) of the same compound?
**A.** 1700 µM

**Q.** And the Slope (ELIC E150A; Schild plot slope)?
**A.** 1.0±0.2

**Q.** What about the pA (ELIC E150A; agonist cysteamine) of the same compound?
**A.** 0.23±0.12

**Q.** What about the Ki (ELIC R91A; [1]) of the same compound?
**A.** 210 µM

**Q.** And the Slope (ELIC R91A; Schild plot slope)?
**A.** 0.7±0.1

**Q.** What about the pA (ELIC R91A; agonist cysteamine) of the same compound?
**A.** −0.69±0.03

**Q.** What about the Ki (ELIC D158A; [1]) of the same compound?
**A.** 5400 µM

**Q.** What about the Slope (ELIC D158A; Schild plot slope) of the same compound?
**A.** 1.2±0.1

**Q.** And the pA (ELIC D158A; agonist cysteamine)?
**A.** 0.74±0.01
